From paper PMC8321398, “The discovery of a novel series of compounds with single-dose efficacy against juvenile and adult Schistosoma species” (PLoS Neglected Tropical Diseases, 2021)
Values after ≈ are worked out from the molar mass of the structure shown. Read-outs that look alike come from different tables or passages of the source.

What was measured:
[1] = Plasma protein binding in human plasma at 10 uM, equilibrium dialysis; format: in vitro ADME; settings: for recovery at 6 h, 10 µM: human, human plasma, pH 7.4
Method: (§1) Each experiment was performed in duplicate for the compound being tested. A working solution of compound was prepared from 10 μL of 10 mM solution in DMSO + 190 μL 40:60 MeCN:Water. A Total solution was prepared from 12 μL of working solution + 588 μL plasma (compound conc: 10 μM, DMSO: 0.1%, ACN:0.76%). In an equilibrium dialysis chamber, Total solution (200 μL) was added to the plasma chamber and PBS pH 7.4 (350 μL) was added to the buffer chamber. The chamber was then incubated at 37°C for 6 h with constant shaking at 400 rpm (Thermomixer comfort, Eppendorf). Aliquots were removed from both plasma and buffer chambers and the following test samples prepared: Blank: blank Plasma (20 μL) + blank buffer (60 μL), Buffer: blank plasma (20 μL) + test buffer (60 μL), Plasma: test plasma (20 μL) + blank buffer (60 μL), Total: total sample (20 μL) + blank buffer (60 μL). Ice-cold acetonitrile (160 μL), containing a suitable standard was added to all samples, they were shaken vigorously and centrifuged at 4,000 rpm for 20 min at 15°C. Supernatant (110 μL) from each sample was diluted with water (110 μL) and the sample analysed by LC-MS/MS.
(§2) % Free = 100 × (AREA in buffer × dilution factor)/(AREA in Plasma × dilution factor)
(§3) % Recovery = 100 ×[(Avg AREA in buffer × dilution factor) + (Avg AREA in Plasma × dilution factor)] / (Avg AREA in Total × dilution factor)

[2] = Plasma protein binding in mouse plasma at 10 uM, equilibrium dialysis; format: in vitro ADME; settings: for recovery at 6 h, 10 µM: mouse, mouse plasma, pH 7.4
Method: as §1, §2, §3

[3] = Kinetic solubility; format: physicochemical
Source text: Table 4 in vitro, physicochemical and in vivo properties of compounds pictured in Fig 10. | column: Measured physicochemical properties / Kinetic solubility, pH 7.4 (uM); Measured physicochemical properties / Kinetic solubility, FaSSIF (uM); Measured physicochemical properties / Kinetic solubility, FeSSIF (uM)

[4] = Metabolic stability in mouse hepatocytes; format: in vitro ADME; settings: hepatocytes (suspension); for remaining at 1.5 h, 1 µM: pH 7.4, 90 min incubation, read-out: Mouse hepatocyte % remaining at 90 min; for remaining at 0.5 h, 1 µM: pH 7.4, 30 min incubation, read-out: Mouse hepatocyte % remaining at 30 min
Method: (§4) 100 μM compound stock solution was prepared from 5 μL of 4 mM stock in DMSO + 195 μL MeCN. Working solution (2 μM compound) was prepared using 10 μL of 100 μM stock + 490 μL buffer pH 7.4 (KHB supplemented with CaCl2, NaHCO3, HEPES, fructose, glycine; pH 7.4).
(§5) Working solution (25 μL, 2 μM) was added in duplicate to wells in a 0.5 mL per well, 96 well plate which was preincubated to reach 37°C. Hepatocyte suspension (25 μL) was added to each plate, and the plate incubated (37°C, 95% relative humidity with 5% CO2 supply) under gentle mixing (Thermomixer @300 rpm). After designated time periods, ice-cold MeCN (250 μL) was added with a suitable standard. For T = 0 min, ice-cold MeCN (250 μL) with suitable standard was added to the working solution (2 μM) and hepatocyte suspension (25 μL) added. The plates for each time point were shaken, sonicated for 5 mins and kept at 4°C until the final plate was processed. The plates were centrifuged at 4,000 rpm for 20 min, supernatant (110 μL) was mixed with water (110 μL) and the samples analysed using LC-MS/MS.

[5] = tested on: HepG2 cells; assay: Cytotoxicity, HepG2 cells with MTT; format: cell-based, human; settings: Table 2; hepG2 cell line, 72 h incubation
Method: Activity against mammalian cells was determined using either of two standard assays. The first of these used MRC-5 cells with Alamar blue staining as previously described. The second used HepG2 cells monitored using 3-(4,5-dimethylthiazol-2-yl)-2,5-diphenyltetrazolium bromide (MTT) as previously described.

[6] = tested on: S. mansoni adult worms; assay: In vivo efficacy, mouse model of adult (42-day old) S. mansoni infection
Method: (§6) Prior to in vivo efficacy experiments, a single animal was given a dose of drug (using the same formulation) that was twice as large as that planned for use in the efficacy experiments and was observed periodically for adverse clinical signs for 24h by trained veterinarians. Adverse clinical signs checked include postural defect, vocalization, oculo-nasal discharge, hypersalivation, change in activity, abnormal gait, respiration and pulse, piloerection, loss of pupillary reflex, eyelid reflex, chromodacryorrhea, reaction to handling, tremor, convulsions, prostration, diarrhoea, cachexia, emaciation. […] In vivo efficacy was assessed in female CD1 mice using methods based on those previously described. Mice were infected subcutaneously with 150 cercariae. Test compounds were suspended in 7% Tween-80 / 3% Ethanol / double distilled water and drug dispersal was facilitated by vortexing and using a sonicating water bath (Formulation “Aqueous”). Alternatively, drugs were first dissolved in DMSO, then diluted with corn oil to give a 1:19 DMSO:corn oil solution/suspension of test compound (Formulation “Corn oil”). Dosing was by oral gavage. Mice in the negative control groups were given the drug suspension vehicle only. Positive controls for treatment of adult, day 42 old, infections were treated with PZQ and those for juvenile, day 21 old, infections with artemether, which unlike PZQ is effective against the juvenile worm infections in mice. During and following treatment, mice were closely observed for any ill effects by staff experienced in animal handling. This involved individuals who were blinded to the treatment groups. Effects they were trained to look for included hunching, immobility, piloerection, subdued behaviour, diarrhoea and loss of body condition. None were seen. Worms were recovered by portal perfusion with citrate saline 8–14 days post treatment and counted. Differences between groups relative to the non-drug treated controls were assessed for statistical significance by Student’s unpaired t-test using GraphPad Prism Software. P values are presented as follows:- ns–P > 0.05 (not significant), * P ≤ 0.05, ** P ≤ 0.01, *** P ≤ 0.001, **** P ≤ 0.0001.
(§7) For pharmacokinetic analysis during the in vivo efficacy experiments individual animals were only sampled once. Samples were taken from one animal in each experimental group at each of 1, 4, 8 h and samples from two animals in each group were taken at 24 h.

[7] = as above; settings: female, CD1, mouse, plasma, po, mouse, Adult infection, read-out: Plasma conc @24 h (efficacy experiment)
Method: as §6, §7

[8] = Metabolic stability in human hepatocytes; format: in vitro ADME; settings: hepatocytes (suspension); for remaining at 1.5 h, 1 µM: pH 7.4, 90 min incubation, read-out: Human hepatocyte % remaining at 90 min; for remaining at 0.5 h, 1 µM: pH 7.4, 30 min incubation, read-out: Human hepatocyte % remaining at 30 min
Method: as §4, §5

[9] = FaSSIF, pH 6.5, read-out: Kinetic solubility, FaSSIF
[10] = FeSSIF, pH 5, read-out: Kinetic solubility, FeSSIF
[11] = pH 7.4, read-out: Kinetic solubility, pH 7.4

Row | Compound | Human plasma protein %binding [1] | recovery at 6 h, 10 µM [1] | Mouse plasma protein %binding [2] | recovery at 6 h, 10 µM [2] | solubility kinetic at 24 h [3, 9] | solubility kinetic at 24 h [3, 10] | solubility kinetic at 24 h [3, 11] | remaining at 1.5 h, 1 µM [4] | Cytotox TC50 [5] | remaining at 1.5 h, 1 µM [8] | remaining at 0.5 h, 1 µM [4] | remaining at 0.5 h, 1 µM [8] | other results
1 | CC(C)c1cc(-c2cn3c(-c4ccc5[nH]ncc5c4F)c(C4CC4)nc3cn2)ccc1F [LSHTM-3686] | 99.998% | 62.7% | 99.997% | 76.1% | 33.9 µM (≈ 14.6 µg/mL) | 43.8 µM (≈ 18.8 µg/mL) | 0.885 µM (≈ 0.38 µg/mL) | 75% | 15,800 nM | 75% |  |  | Worms remaining ([6]; mouse, Adult infection, oral 6.25x2 mg/kg (12 h apart), formulation corn oil): 2.4%; concentration at 24 h ([7]; oral 6.25x2 mg/kg (12 h apart), formulation corn oil): 241 ng/mL
2 | Fc1ccc(-c2cn3c(-c4ccc5[nH]ncc5c4F)c(C(F)(F)F)nc3cn2)cc1C(F)(F)C(F)(F)F [LSHTM-3645] | 100% | 85.8% | 100% | 96.9% | 199 µM (≈ 106 µg/mL) | 200 µM (≈ 107 µg/mL) | 0.264 µM (≈ 0.141 µg/mL) | 94% | 11,700 nM | 105% |  |  | Worms remaining ([6]; mouse, Adult infection, oral 6.25 mg/kg, formulation corn oil): 1%; efficacy against adult worm infections ([6]; mouse, single oral dose (Fig 9B)): highly effective; concentration at 24 h ([7]; 6.25 mg/kg, oral 6.25 mg/kg, formulation corn oil): 1010 ng/mL
3 | Fc1ccc(-c2cn3c(-c4ccc5[nH]ncc5c4F)c(C(F)(F)F)nc3cn2)cc1C(F)(F)F [LSHTM-3642, 3-(4-fluoro-1H-indazol-5-yl)-6-(4-fluoro-3-(trifluoromethyl)phenyl)-2-(trifluoromethyl)imidazo[1,2-a]pyrazine] | 99.9895% | 97.4% | 99.9915% | 92.1% | 196 µM (≈ 94.7 µg/mL) | 197 µM (≈ 95.2 µg/mL) | 0.854 µM (≈ 0.413 µg/mL) | 90% | 16,600 nM | 105% |  |  | in vivo EC50 against adult worms ([6]; mouse model, single oral dose (Fig 9A)): < 6.25 mg/kg; Worms remaining ([6]; mouse, Adult infection, oral 12.5 mg/kg, formulation Aq): 1%; concentration at 24 h ([7]; 12.5 mg/kg, oral 12.5 mg/kg, formulation Aq): 939 ng/mL
4 | Fc1c(-c2c(C(F)(F)F)nc3cnc(-c4cccc(C(F)(F)C(F)(F)F)c4)cn23)ccc2[nH]ncc12 [LSHTM-3608] | 100% | 97.8% | 99.9195% | 80.8% | 200 µM (≈ 103 µg/mL) | 196 µM (≈ 101 µg/mL) | 0.704 µM (≈ 0.363 µg/mL) | 88% | 10,900 nM | 98% |  |  | 
5 | CC(C)c1nc2cnc(-c3ccc(F)c(C(F)(F)F)c3)cn2c1-c1ccc2[nH]ncc2c1F [LSHTM-3604] | 99.9973% | 92.4% | 99.9858% | 94.5% |  |  | 0.834 µM (≈ 0.381 µg/mL) | 80% | 12,000 nM | 98% | 89% | 99% | solubility kinetic ([3]; FaSSIF, read-out: Kinetic solubility, FaSSIF): 200 µM (≈ 91.5 µg/mL); solubility kinetic ([3]; FeSSIF, read-out: Kinetic solubility, FeSSIF): 200 µM (≈ 91.5 µg/mL)
6 | CC(C)c1nc2cnc(-c3ccc(F)c(C(F)(F)F)c3)cn2c1-c1c(F)cc(O)cc1F [LSHTM-3520] | 99.9895% | 97.1% | 99.97% | 91.5% |  |  | 12.7 µM (≈ 5.73 µg/mL) | 44% | 7,130 nM |  | 65% | 52% | half-life at 1 µM ([4]; pH 7.4, calculated from % remaining): 75 min; reducing the S. mansoni worm count ([6]; mice infected for 42 days (adult worms), 200 mg/kg single oral dose): highly effective; Worms remaining ([6]; mouse, Adult infection, oral 200 mg/kg, formulation Aq): 1%; Plasma conc @24 h (efficacy experiment) ([6]; mouse, Adult infection, oral 200 mg/kg, formulation Aq, 200 mg/kg): 1,907 ng/mL; concentration at 24 h ([7]; 200 mg/kg, oral 200 mg/kg, formulation Aq): 2000 ng/mL
